d = 2'-deoxy (DNA); r = 2'-OH (RNA)
How the values were obtained:
[1] = system: FAK; test: FAK down-regulation by siRNA in vitro, Western blot; assay type: cell-based, human; details: for suppression of FAK expression: SKOV3, 72 hours of transfection
Description: siRNAs were synthesized and then purified using high-performance liquid chromatgraphy (Qiagen-Xeragon, Germantown, Md.). FAK siRNA sense: r(CCACCUGGGCCAGUAUUAU)d(TT) (SEQ ID NO:7); antisense: r(AUAAUACUGGCCCAGGUGG)d(TT) (SEQ ID NO:8) and control siRNA sense: r(UUUUCCGAACGUGUCACGU)dTT; (SEQ ID NO:9) antisense: r(ACGUGACACGUUCGGAGAA)dTT (SEQ ID NO:10) bearing no sequence homology with any known human mRNA sequences were dissolved in buffer (100 mmol/L potassium acetate, 30 mmol/L HEPES potassium hydroxide, 2 mmol/L magnesium acetate, pH 7.4) to a final concentration of […], heated to 90° C. for 60 seconds, incubated at 37° C. for 60 minutes, and stored at −20° C. until future use.
(§1) Cells were lysed in modified RIPA buffer (50 mM Tris, 150 mM NaCl, 1% triton, 0.5% deoxycholate plus 25 µg/ml leupeptin, 10 µg/ml aprotinin, 2 mM EDTA, and 1 mM sodium orthovanadate (Sigma Chemical Co, St. Louis, Mo.) as previously described (Sood et al., 2004; Sood et al., 2002). A sample was removed from culture dishes by cell scraping and centrifuged at 12,500 rpm for 30 min. The […] protein concentration of the supernatant was determined using a bicinchoninic acid protein assay reagent kit (Pierce, Rockford, Ill.), and whole cell lysates were analyzed by 7.5% SDS-PAGE. Samples were then transferred to nitrocellulose membrane by semi-dry transfer (BioRad Laboratories, Hercules, Calif.). Membranes were blocked with 5% nonfat milk, and incubated with 0.25 μg/mL anti-FAK antibody (Biosource, International Camarillo, Calif.) for 1 h at room temperature. Antibody was detected with 0.167 μg/mL HRP-conjugated anti-mouse secondary antibody (The Jackson Laboratory, Bar Harbor, Me.) and developed with an enhanced chemiluminescence detection kit (Pierce). Equal loading was confirmed by detection of β-actin (0.1 μg/ml, anti-β-actin antibody, Sigma Chemical). Densitometric analysis was performed using the Scion Imaging software (Scion Corporation, Frederick, Md.).
Next, the inventors sought to examine whether FAK silencing using siRNA will sensitize ovarian cancer cells to docetaxel.

[2] = system: FAK; test: In vivo down regulation of FAK by siRNA in DOPC (Western blot, IHC); parameters: species or system human; details: for FAK expression at the conclusion of the therapy studies: HeyA8, IHC
Description: siRNA for in vivo delivery was incorporated into the phospholipid 1,2-dioleoyl-sn-glycero-3-phosphatidylcholine (DOPC). DOPC and siRNA were mixed in the presence of excess tertiary-butanol at a ratio of […], as previously described (Landen et al., 2005). Tween-20 was added to the mixture at a ratio of 1:19. The mixture was vortexed, frozen in an acetone/dry ice bath, and lyophilized. Before in vivo administration, this preparation was hydrated with normal (0.9%) saline at a concentration of 15 μg/ml to achieve the desired dose of 150-200 μl per injection. To estimate the quantity of siRNA not taken up by liposomes free siRNA was separated from liposomes by using filter units with a 30,000 nominal molecular weight limit (Millipore Corp, Billerica, Mass.). The liposomal suspension was added to the filters and centrifuged at 5,000 g for 40 min at room temperature. Fractions were collected, the material trapped in the filter was reconstituted with 0.9% saline, and the amount of siRNA in the collected fraction and eluent were measured by spectrophotometry.
as §1
To evaluate the therapeutic effect of the combination of FAK siRNA and docetaxel in a mouse model, preliminary dose-response studies were performed experiments for FAK siRNA. HeyA8 cells were implanted i.p. and treatment was initiated 21 days following tumor injection when i.p. tumors could be assessed by palpation. Mice were randomly distributed into three groups (n=10 per group) and were treated with a single dose of PBS, control siRNA or FAK siRNA at 150 μg/kg in 200 μl volume. Following treatment, 3 mice were sacrificed at definite time-points (24 h, 48 h, 96 h and 6 days). Fluorescent IHC analysis was performed on any excised peritoneal cavity tumors as described below.
The inventors investigated the inhibition of FAK expression in combination with docetaxel and the in vivo therapeutic potential. Prior to initiating therapy studies, the ability of FAK-targeted siRNA incorporated in DOPC to down-regulate FAK in vivo was assessed. Nude mice bearing intraperitoneal HeyA8 tumors were injected with a single dose of FAK siRNA i.p., and tumors were harvested 1, 2, 4, and 6 days after injection for Western blot analysis and immunohistochemistry for assessing level of FAK expression. […] FAK expression was not affected by control siRNA. Twice weekly administration of siRNA (150 μg/kg) was selected as an exemplary dosing schedule for subsequent therapy experiments.

[3] = system: HeyA8 cells; test: Chronic restraint stress, HeyA8 orthotopic tumor growth; assay type: in vivo, nude mice; details: siRNA in DOPC three times per week
From the text: Mice habituated to vivarium conditions for 1 week before the initiation of stress procedures. A restraint-stress procedure was used based on previous studies (Sheridan et al., 1991), substituting a novel Mouse Restraint System (FIG. 15A) for conical centrifuge tubes. In this system, up to 10 mice are placed in individual slots, and each slot can be adjusted to restrain the animal for a desired length of time. In the present study, restraint stress began between 8 a.m. and 10 a.m., and lasted for 2-6 hours for up to 21 days. […] Immunohistochemistry and H&E staining procedures were carried out on formalin-fixed paraffin-embedded tumors. […] Pumps were inserted on the nape of the neck 7 days prior to initiation of restraint stress for 2 hours daily. Mice were anesthetized with inhaled methoxyflurane (Medical Developments Australia Pty. Ltd, Melbourne, Australia), and implanted with Alzet pumps containing PBS or S-propranolol hydrochloride (Sigma Co., St. Louis, Mo.) diluted in PBS at a dose of 2 mg/kg/day, which allows for chronic continuous receptor blockade, for 28 days (Aarons and Molinoff, 1982; Exton et al., 2002).

[4] = system: SKOV3-TR cells; test: Cytotoxicity assay (MTT), SKOV3-TR; assay type: cell-based, human; details: SKOV3-TR; siRNA 48 hours before docetaxel
Description: The medium was exchanged after 48 hours with increasing concentrations of docetaxel (obtained from Aventis Pharma, Bridgewater, N.J.) dissolved in ethanol (final concentration range, 0.1-10,000 nmol/L prepared in medium) or cisplatin (purchased from LKT Laboratories, Inc., St. Paul, Minn.) dissolved in water. After a 96-hour incubation, 50 μL of 0.15% 3-(4,5-dimethylthiazol-2-yl)-2,5-diphenyltetrazolium bromide was added to each well and incubated for 2 hours. The supernatant was removed, and cells were dissolved in 100 μL DMSO. The absorbance at 570 nm was recorded using a FALCON microplate reader (Becton Dickinson Labware, Bedford, Mass.), and cell survival expressed as a percent increase or decrease above control conditions, after subtracting blank A570 readings. The IC50 concentration was determined by finding the A570 reading midpoint between maximal and minimal readings and finding the chemotherapy concentration that intersects the growth curve at that A570 reading.

| Substance | FAK expression compared with untreated cells ([1]; SKOV3) | FAK expression at the conclusion of the therapy studies [2] | FAK expression ([2]; single dose) | effect on stress induced increase in tumor weight, nodules and metastasis [3] | fold increase in sensitivity to docetaxel [4] [fold] | suppression of FAK expression [1] [%] | suppression of FAK expression ([1]; listed as FAK-specific siRNA) [%] | FAK expression ([1]; after 24 hours of treatment) | reduction in FAK levels ([2]; HeyA8 tumors, within 48 hours of a single dose in DOPC, Western blot) [%] | persistence of FAK reduction ([2]; single dose in DOPC) | recovery of FAK expression ([2]; single treatment in DOPC) |
| --- | --- | --- | --- | --- | --- | --- | --- | --- | --- | --- | --- |
| control siRNA: sense r(UUUUCCGAACGUGUCACGU)dTT, antisense r(ACGUGACACGUUCGGAGAA)dTT, no homology with human mRNA; in vivo in DOPC (sense UUUUCCGAACGUGUCACGUTT; antisense ACGUGACACGUUCGGAGAATT; sugars from the 5' end r19 d2, backbone not given here) | did not significantly affect FAK expression | not suppressed | not affected | failed to block stress-induced enhancement of tumor weight and nodules | – | – | – | – | – | – | – |
| FAK siRNA: sense r(CCACCUGGGCCAGUAUUAU)d(TT), antisense r(AUAAUACUGGCCCAGGUGG)d(TT); for in vivo delivery incorporated into DOPC (sense CCACCUGGGCCAGUAUUAUTT; antisense AUAAUACUGGCCCAGGUGGTT; sugars from the 5' end r19 d2, backbone not given here) | – | sustained suppression of FAK expression | – | – | 4.8 | 90 | > 90 | detectable decrease in FAK expression | > 80 | at least 4 days | began to return to basal levels by 6 days |
